# From article PMC7377361, “Pressurized DNA state inside herpes capsids—A novel antiviral target” (PLoS Pathogens, 2020)
# Where no end group is shown, it is not given here.
# Tests used:
# NPC = assay: Nuclear import assay (GST-NLS-EGFP) in isolated rat liver nuclei; type: biochemical; conditions: cytosol and ATP regeneration system, 37 °C
# Method: This was verified with a fluorescently labeled nuclear localization signal (NLS), added to purified rat liver nuclei incubated with cytosolic extracts (as a source of soluble import factors) supplemented with an ATP regeneration system, see Supporting Materials for experimental description and S4A Fig. These controls were also reproduced with a digitonin-permeabilized cell assay, which accurately recapitulates capsid-nucleus binding and nuclear import in living cells; see Supporting Materials and data shown in S4B Fig. In agreement with observations in the isolated nuclei system (Fig 3B), we also confirmed via a digitonin-permeabilized cell assay that none of the three compounds interfered with capsid-NPC binding in cells. Attachment of GFP-capsids to nuclei was visualized with SR-SIM (S4C Fig). The addition of WGA prevented capsid binding, showing capsid-NPC binding specificity (S4C Fig).
# Rat liver cell nuclei were incubated with GST-NLS-EGFP at 37 °C for 40 min in CBB buffer containing: (i) rat liver cell cytosol, (ii) 1 mg/mL BSA, and (iii) ATP regeneration system. The complete binding mixture was loaded onto coverslips and processed for fluorescence imaging as described above. When indicated, nuclei were preincubated with the polyvalent cationic agents at the concentrations described above for 2 h before performing import assays. […]
# HSV-1 C-capsids = assay: Reconstituted nuclei-capsid MOA-assay, ultrathin-sectioning EM of DNA ejection; type: biochemical; conditions: 37°C, 40 min; DAB-Am-4 58.5 μM, bPEI 600 39 μM, Arg^5+ 25 μM (N/P 1.5)
# Method: Once the integrity and functionality of the reconstituted nuclei-capsid system for MOA testing was established, we applied a stringent test of the antiviral activity of each compound. We used ultrathin-sectioning EM to visualize DNA injection from HSV-1 capsids into isolated nuclei with DAB-Am-4 (58.5 μM), bPEI 600 (39 μM), and Arg^5+(25 μM). Compound concentrations corresponded to an N/P ratio of 1.5 (scaled proportionally to virus concentration, as described above) (Fig 4). Purified DNA-filled C-capsids were incubated with isolated rat liver nuclei in the presence of cell cytosol supplemented with ATP regeneration system for 40 min at 37°C, providing optimum conditions, found to maximize capsid binding to NPCs with subsequent DNA ejection. […] Only capsids that appeared bound to the nuclear membrane are included in the statistics (more than 790 nuclei-bound capsids and over 140 nuclei were counted for each sample analysis, providing good statistics). [Note that micrographs shown in Raw 1 of Fig 4 are lower magnification images (13,500X) which show an area around a nuclear membrane with empty and DNA-filled capsids. For our analysis of capsids bound to NPCs, we only used higher magnification images (25,000X) shown in Raw 2, to identify capsids that were associated with visible NPCs. A larger collection of these EM-micrographs at magnification 25,000X with and without different compounds added is shown in a supporting raw data file (S5 Fig).]
# We built an in vitro viral HSV-1 DNA translocation system in which the HSV-1 genome was released into nucleoplasm in a homogenate solution mimicking the cytoplasm environment; see details in previously described protocol in ref.[41]. In a typical system, rat liver cell nuclei were incubated with C-capsids (HSV-1 or GFP-labeled HSV-1) in solution containing: (i) cytosol, (ii) BSA, (iii) ATP regeneration system; see details in ref.[41]. The system was incubated at 37°C for 40 min, sufficient for capsid binding to nuclei. For inhibition studies, wheat germ agglutinin (WGA) was preincubated with the nuclei prior to addition of C-capsids. For compound-induced inhibition of DNA ejection studies, C-capsids were preincubated with the polyvalent cationic agents at the concentrations described in the main text before adding capsids to nuclei.
# After incubation of nuclei with C-capsids, the samples were washed once with CBB buffer (1,000 rpm for 10 min in a microcentrifuge). The supernatant was then removed and replaced with a fixative (2.5% EM-grade glutaraldehyde and 2.0% EM-grade formaldehyde in 0.1 M sodium cacodylate buffer, pH 7.4) for 3 hours at 4 °C. The fixative was then removed, replaced briefly with buffer, and then replaced with 1% osmium tetroxide in buffer for 90 minutes. Each sample was then subjected to 10-minute buffer rinse, after which it was placed in 1% aqueous uranyl acetate and left overnight. The next day, each sample was dehydrated via a graded ethanol series, culminating in propylene oxide. Following a graded propylene oxide; Epon812 series, the nuclear pellets were embedded in Epon812 prior to cutting. Ultrathin (ca. 90 nm) Epon sections on grids were stained with 1% aqueous uranyl acetate and lead citrate. After the grids dried, areas of interest were imaged at 120 kV, spot 3 using a Tietz 2kx2k camera mounted on a Philips/FEI (now Thermo Fisher FEI) CM200 transmission electron microscope.
compound,measurement,setting,value
NCCCN(CCCN)CCCCN(CCCN)CCCN [DAB-Am-4],nuclear import of GST-NLS-GFP protein,NPC,not blocked
same,Capsids bound to NPC: DNA-filled capsids,HSV-1 C-capsids,60%
same,Capsids bound to NPC: DNA-filled capsids (count),HSV-1 C-capsids,479
same,Capsids bound to NPC: Empty capsids,HSV-1 C-capsids,40%
same,Capsids bound to NPC: Empty capsids (count),HSV-1 C-capsids,313
RRRRR [Arg^5+],nuclear import of GST-NLS-GFP protein,NPC,not blocked
same,Capsids bound to NPC: DNA-filled capsids,HSV-1 C-capsids,50%
same,Capsids bound to NPC: DNA-filled capsids (count),HSV-1 C-capsids,399
same,Capsids bound to NPC: Empty capsids,HSV-1 C-capsids,50%
same,Capsids bound to NPC: Empty capsids (count),HSV-1 C-capsids,398
